The target in experiment [1] is T1, Neutral cholesterol ester hydrolase 1 (Homo sapiens, UniProt Q6PIU2).
T1 sequence (Q6PIU2 whole entry): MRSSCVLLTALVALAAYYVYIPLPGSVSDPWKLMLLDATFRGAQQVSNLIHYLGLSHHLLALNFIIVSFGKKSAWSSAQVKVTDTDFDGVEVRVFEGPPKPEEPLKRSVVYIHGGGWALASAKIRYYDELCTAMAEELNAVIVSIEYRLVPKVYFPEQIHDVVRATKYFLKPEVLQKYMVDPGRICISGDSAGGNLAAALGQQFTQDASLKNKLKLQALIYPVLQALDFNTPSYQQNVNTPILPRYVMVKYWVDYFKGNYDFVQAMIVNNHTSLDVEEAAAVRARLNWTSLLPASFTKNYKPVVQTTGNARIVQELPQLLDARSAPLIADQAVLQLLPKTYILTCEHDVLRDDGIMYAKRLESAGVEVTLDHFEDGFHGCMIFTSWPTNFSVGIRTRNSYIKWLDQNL
The experiment can be described thus: Inhibition of human KIAA1363 expressed in 293T/17 cells using 2-thioacetyl MAGE as substrate preincubated for 20 mins measured after 1 hr. The format is cell-based.

Experiment [2] concerns Mus musculus. The experiment can be described thus: Inhibition of KIAA1363 in tumor of SCID mouse xenografted with human SK-OV-3 cells at 100 mg/kg, po after 2 hrs by fluorescence assay. The following applies: SK-OV-3, 2 h. The format is functional. (Xenograft models place foreign cells or tissue in a host animal.)
For experiment [3], the system named is Mus musculus. The experiment can be described thus: Inhibition of KIAA1363 in tumor of SCID mouse xenografted with human SK-OV-3 cells at 100 mg/kg, ip after 2 hrs by fluorescence assay. The class given is functional. As to conditions: SK-OV-3, ip, route intraperitoneal.
In experiment [4] the test system is Mus musculus. Briefly: Inhibition of KIAA1363 in heart of SCID mouse at 100 mg/kg, ip after 2 hrs by fluorescence assay. The class given is functional. As to conditions: route intraperitoneal.

SMILES strings stand for the structures.

As usually defined, the IC50 is the point on the concentration scale where inhibition reaches its midpoint. In experiment [1], `CN(C)C(=O)Oc1ccccc1Br` returned an IC50 of more than 100 µM. The same measure, in the same setting: under `CN(C)C(=O)Oc1ccc2ccccc2c1Cl` stands 1.1 µM. As usually defined, the inhibition in vivo is how much of the control response was suppressed. Read a high inhibition in vivo as a strong effect. Turning to `CN(C)C(=O)Oc1ccc2cc(Br)ccc2c1Br`, in experiment [2], the inhibition in vivo at 100 mg/kg was 18%. In experiment [1], `CN(C)C(=O)Oc1ccc2ccccc2c1C#N` displayed an IC50 of more than 100 µM.

In experiment [1], `CN(C)C(=O)Oc1ccc2ccccc2c1` [NAPHTHALEN-2-YL DIMETHYLCARBAMATE] showed an IC50 of more than 100 µM. As for `CCCc1ccc2c(Br)c(OC(=O)N(C)C)ccc2c1`, the results for the inhibition in vivo at 100 mg/kg in experiment [3], in experiment [4] and in experiment [2] were 64%, 66% and 22%, respectively. Turning to `CN(C)C(=O)Oc1ccc2cc(C#N)ccc2c1Br`, 100 mg/kg produced 14% inhibition in vivo in experiment [2].

Source of the values: ChEMBL document CHEMBL2069167, “Synthesis and structure-activity relationship of (1-halo-2-naphthyl) carbamate-based inhibitors of KIAA1363 (NCEH1/AADACL1)” (Bioorg Med Chem Lett, 2012).
